ChEMBL document CHEMBL6182851, “Discovery of dual CDK4/6 and BRD4 inhibitor as apoptosis and autophagy inducers against NSCLC in vitro and in vivo” (Eur J Med Chem, 2025)
Calls of active or inactive are those of the source. The calls are words filed in the database; no cut-off is given here.

Legend:
[1] = system: NCI-H460; assay: Induction of apoptosis in human NCI-H460 cells assessed as early apoptotic cells at 2 uM incubated for 48 hrs by Annexin V-PE/7-AAD staining based flow cytometric analysis (reference value: 3.58 %); format: functional
[2] = system: NCI-H460; assay: Induction of cell cycle arrest in human NCI-H460 cells assessed as accumulation of cells at S phase at 8 uM incubated for 48 hrs by PI staining based flow cytometric analysis (reference value: 33.3 %); format: functional
[3] = system: NCI-H460; assay: Antitumor activity against human NCI-H460 cells xenografted in female BALB/c nude mouse assessed as decrease in Ki67-positive cells at 50 mg/kg, ip administered for 21 consecutive days by immunohistochemical analysis; format: functional, organism-based; settings: time 21.0 day
[4] = system: NCI-H460; assay: Induction of autophagy in human NCI-H460 cells assessed as increase in yellow fluorescence incubated for 24 hrs by immunofluorescence analysis; format: functional, cell-based; settings: dose 2-8 µM
[5] = system: NCI-H460; assay: Induction of autophagy in human NCI-H460 cells assessed as production of autophagic lysosomes at 4 uM incubated for 24 hrs by transmission electron microscopic analysis; format: functional, cell-based
[6] = system: NCI-H460; assay: Induction of cell cycle arrest in human NCI-H460 cells assessed as accumulation of cells at G2 phase at 4 uM incubated for 48 hrs by PI staining based flow cytometric analysis (reference value: 11.0 %); format: functional
[7] = system: NCI-H460; assay: Induction of autophagy in human NCI-H460 cells assessed as increase in autophagic vesicles at 4 uM incubated for 24 hrs by transmission electron microscopic analysis; format: functional, cell-based
[8] = system: NCI-H460; assay: Antitumor activity against human NCI-H460 cells xenografted in female BALB/c nude mouse at 25 mg/kg, ip administered for 21 consecutive days; format: functional, organism-based; settings: time 21.0 day
[9] = system: NCI-H460; assay: Induction of cell cycle arrest in human NCI-H460 cells assessed as accumulation of cells at S phase at 4 uM incubated for 48 hrs by PI staining based flow cytometric analysis (reference value: 33.3 %); format: functional
[10] = system: NCI-H460; assay: Antitumor activity against human NCI-H460 cells xenografted in female BALB/c nude mouse assessed as reduction in c-Myc expression at 50 mg/kg, ip administered for 21 consecutive days by immunohistochemical analysis; format: functional, organism-based; settings: time 21.0 day
[11] = system: NCI-H460; assay: Induction of autophagy in human NCI-H460 cells assessed as increase in LC3-II expression incubated for 48 hrs by Western blotting analysis; format: functional, cell-based; settings: dose 2-8 µM
[12] = system: NCI-H460; assay: Induction of autophagy in human NCI-H460 cells assessed as reduction in intracellular AKT protein expression; format: functional, cell-based
[13] = system: NCI-H460; assay: Induction of autophagy in human NCI-H460 cells assessed as increase in vacuole formation incubated for 12 hrs by microscopic analysis; format: functional, cell-based
[14] = system: NCI-H460; assay: Antiproliferative activity against human NCI-H460 cells assessed as decrease in c-myc expression at 2 to 8 uM treated for 24 hrs by immunofluorescence analysis; format: functional, cell-based; settings: dose 2-8 µM
[15] = AUC (0 to infinity) in male Sprague-Dawley rat at 5 mg/kg, iv measured up to 24 hrs by LC-MS/MS analysis; format: ADME, organism-based; settings: in vivo
[16] = target: T1, Cyclin-dependent kinase 4 (Homo sapiens, UniProt P11802); assay: Binding affinity to CDK4 in human NCI-H460 cells assessed as increase in thermal stabilization at 38 to 62 degreeC at 1 uM pretreated for 6 hrs followed by heat exposure for 3 mins and subsequently incubated at room temperature for 3 mins by CETSA; format: cell-based; settings: time 366.0 min
[17] = system: NCI-H460; assay: Induction of apoptosis in human NCI-H460 cells assessed as late apoptotic cells at 2 uM incubated for 48 hrs by Annexin V-PE/7-AAD staining based flow cytometric analysis (reference value: 3.76 %); format: functional
[18] = system: NCI-H460; assay: Induction of autophagy in human NCI-H460 cells assessed as reduction in intracellular PI3K protein expression; format: functional, cell-based
[19] = target: T1, Cyclin-dependent kinase 4; assay: Inhibition of CDK4 (unknown origin)
[20] = system: NCI-H460; assay: Induction of autophagy in human NCI-H460 cells assessed as decrease in P62 expression at 2 to 8 uM incubated for 48 hrs by Western blotting analysis; format: functional, cell-based; settings: dose 2-8 µM
[21] = Half life in male Sprague-Dawley rat at 5 mg/kg, iv measured up to 24 hrs by LC-MS/MS analysis; format: ADME, organism-based; settings: in vivo
[22] = system: NCI-H460; assay: Induction of autophagy in human NCI-H460 cells assessed as increase in autophagosomes incubated for 48 hrs by MDC staining and LC3B immunofluorescence analysis; format: functional, cell-based; settings: dose 2-8 µM
[23] = system: NCI-H460; assay: Antitumor activity against human NCI-H460 cells xenografted in female BALB/c nude mouse assessed as tumor growth inhibition at 50 mg/kg, ip administered for 21 consecutive days relative to control; format: functional; settings: NCI-H460, 504 h, time 21 day, read-out: TGI
[24] = system: NCI-H460; assay: Induction of cell cycle arrest in human NCI-H460 cells assessed as accumulation of cells at G1 phase at 8 uM incubated for 48 hrs by PI staining based flow cytometric analysis (reference value: 56.7 %); format: functional
[25] = MRT (0 to infinity) in male Sprague-Dawley rat at 5 mg/kg, iv measured up to 24 hrs by LC-MS/MS analysis; format: ADME, organism-based; settings: in vivo
[26] = Toxicity in mouse assessed as animal mortality at 100 to 400 mg/kg, ip measured for 21 days; format: organism-based; settings: in vivo, 504 h, dose 100-400 mg/kg, time 21 day
[27] = system: NCI-H460; assay: Antitumor activity against human NCI-H460 cells xenografted in female BALB/c nude mouse assessed as tumor growth inhibition at 25 mg/kg, ip administered for 21 consecutive days relative to control; format: functional; settings: NCI-H460, 504 h, time 21 day, read-out: TGI
[28] = system: L02; assay: Cytotoxicity against human LO2 cells measured up to 8 days; format: toxicity, cell-based; settings: l02, 192 h, time < 8 day

T1 sequence (P11802 whole entry): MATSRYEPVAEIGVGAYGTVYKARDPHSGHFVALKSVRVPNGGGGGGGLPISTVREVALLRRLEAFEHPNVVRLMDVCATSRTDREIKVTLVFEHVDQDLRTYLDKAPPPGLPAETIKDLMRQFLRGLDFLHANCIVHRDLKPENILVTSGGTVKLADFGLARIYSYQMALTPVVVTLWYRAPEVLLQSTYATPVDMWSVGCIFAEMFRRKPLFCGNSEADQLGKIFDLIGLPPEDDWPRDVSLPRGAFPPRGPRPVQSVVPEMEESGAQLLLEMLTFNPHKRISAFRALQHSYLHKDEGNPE

In the case of `COc1cc(-c2nc3ccc(F)cc3c(=O)[nH]2)cc(OC)c1OCC(=O)N1CCN(c2ccc(Nc3ncc4cc(C(=O)N(C)C)n(C5CCCC5)c4n3)nc2)CC1`, the Activity [1] is reported as 9.06%, the Activity [2] is reported as 15.8% and the Activity [3] is reported as “Active”. For the same compound, the Activity [4] was “Dose-dependent-effect”, the Activity [5] was “Active” and the Activity [6] was 7.15%. For the same compound, the Activity [7] was “Active”, the Activity [8] was “Active” and the Activity [9] was 18.8%. For the same compound, the Activity [10] was “Active”, the Activity [11] was “Dose-dependent-effect” and the Activity [12] was “Dose-dependent-effect”. The Activity [13] was “Active”, the Activity [14] was “Active” and the AUC(0-inf) [15] was 3860 ng·h/mL. The Activity [16] was “Active”, the Activity [17] was 4.55% and the Activity [18] was “Dose-dependent-effect”. The IC50 [19] was 85.1 nM, the Activity [20] was “Active” and the half-life [21] was 7.42 h. For the same compound, the Activity [22] was “Dose-dependent-effect”, the inhibition in vivo at 50 mg/kg [23] was 85.3% and the Activity [24] was 80.8%. For the same compound, the MRT inf [25] was 3.04 h, the Activity [26] was “Non-toxic” and the inhibition in vivo at 25 mg/kg [27] was 67.8%. The Activity [28] was “Non-toxic”.
